According to patent publication US8518989B2, “Prodrugs of short-chain fatty acids and treatment methods” (Georgia Health Sciences University Research Institute, Inc., priority 2005, dated 2013):

Columns and labels:
[1] = tested on: SMCT1 and C/EBPδ expression; assay: Induction of SMCT1 and C/EBPδ expression in MCF7 cells (RT-PCR); format: cell-based, human; settings: NaB 5 mM, TSA 1 μM, MAA 5 mM, VPA 2 mM, 18 or 24 h
Protocol: RT-PCR: Two μg of RNA was reverse transcribed using the Gene Amp PCR system (Roche) according to the manufacturer's instructions. Amplification of cDNA corresponding to mouse [NT] (sense) (SEQ ID NO:9), [NT] (anti-sense) (SEQ ID NO: 10)], mouse [NT] (sense) (SEQ ID NO:11), [NT] (anti-sense) (SEQ ID NO:12)], human [NT] (sense) (SEQ ID NO:13), [NT] (anti-sense) (SEQ ID NO:14)], and human C/EBPδ [[NT] (sense) (SEQ ID NO:15), [NT] (anti-sense) (SEQ ID NO:16)] was carried out using HPRT1 (hypoxanthine guanine phosphoribosyl transferase 1) as an internal control.

MCF7, T47D, and ZR75.1 = assay: Apoptosis in breast tumor cell lines (FACS, sub-G1); format: cell-based, human
Protocol: (§1) Cell cycle analysis: Cells were fixed in 50% ethanol, treated with 0.1% sodium citrate, 1 mg/ml RNase A, and 50 μg/ml propidium iodide, and subjected to FACS (Becton Dickinson FacsCaliber) analysis. Cells with DNA content below Cl were scored as apoptotic population.

HMEC, HBL100, and MCF10A = assay: Apoptosis in non-transformed mammary epithelial cell lines (FACS, sub-G1); format: cell-based, human; settings: normal mammary epithelial cells expressing SMCT1
Protocol: as §1

[2] = tested on: MCF7 cells transfected with SMCT1 cDNA; assay: Colony formation assay in MCF7 cells transfected with SMCT1 cDNA; format: cell-based, human; settings: SMCT1-expressing MCF7 cells
HDAC = HDAC activity in a cell-free system with MCF7 cell lysate; format: biochemical, human
Protocol: Measurement of HDAC activity in a cell-free system: This was done using a commercially available assay kit (BioVision). MCF7 cell lysate was used as a source of HDAC activity. 50 μg of lysate protein was incubated with various monocarboxylates (1 mM), or trichostatin A (20 μM), and the reaction was initiated by the addition of HDAC substrate. The reaction was then terminated and the deacetylated product was measured according to the manufacturer's instructions. The activity is expressed in nmoles of deacetylated product formed per μg of MCF7 cell lysate protein per 30 min.

[3] = tested on: all three isoforms of NOS; settings: read-out: Km for arginine; cited from earlier work

| SMILES | Induction of SMCT1 and C/EBPδ expression [1] | Induction of apoptosis (MCF7, T47D, and ZR75.1) | further results |
| --- | --- | --- | --- |
| CCCC(CCC)C(=O)O [valproate, valproic acid] | no or little activity | do not have any effect on apoptosis | – |
| CC(/C=C/C(=O)NO)=C\[C@@H](C)C(=O)c1ccc(N(C)C)cc1 [trichostatin A] | induce the expression of both genes | cause apoptosis specifically in tumor cell lines | Induction of apoptosis (HMEC, HBL100, and MCF10A): does not induce apoptosis |
| CC(O)C(=O)O (stereo not shown) [lactate] | – | – | Effect on cell growth / apoptosis [2]: no effect on cell growth; HDAC inhibition (in words) (HDAC): does not |
| COCC(=O)O [methoxyacetate, methoxyacetic acid] | no or little activity | do not have any effect on apoptosis | – |
| N=C(N)NCCC[C@H](N)C(=O)O [arginine] | – | – | Km [3]: 3 to 30 µM |
